Experimental data from ChEMBL document CHEMBL1156829 (Proc Natl Acad Sci U S A, 2008).

What was measured:
[1] = NOVARTIS: Cytotoxicity against human hepatocellular carcinoma cell line (Huh7); type: toxicity, cell-based, Huh-7; conditions: Huh7 cells (hepatocellular carcinoma cell line)
Plasmodium falciparum [2] = test: NOVARTIS: Inhibition of Plasmodium falciparum W2 (drug-resistant) proliferation in erythrocyte-based infection assay; type: functional, organism-based; conditions: Plasmodium falciparum, W2; read-out: EC50
Plasmodium falciparum [3] = test: NOVARTIS: Inhibition of Plasmodium falciparum 3D7 (drug-susceptible) proliferation in erythrocyte-based infection assay; type: functional, organism-based; conditions: Plasmodium falciparum, 3D7

Structure (SMILES)	CC50 [1] [µM]	EC50 (Plasmodium falciparum [2]) [µM]	EC50 (Plasmodium falciparum [3]) [µM]
C=CC1(O)CN2CCC1CC2[C@@H](O)c1ccnc2ccc(OC)cc12 (stereo partly drawn)	> 10	0.264	0.105
Brc1ccc(Nc2nc(NCc3ccco3)c3ccccc3n2)cc1	7.15	0.193	0.196
COc1ccc2nc(NC(N)=NC(=O)Nc3ccccc3)nc(C)c2c1	34.8	0.896	0.688
CCOC(=O)c1c(C)n(-c2ccccc2)c2ccc(O)cc12	> 100	2.66	1.7
O=C(CN1CCN(S(=O)(=O)c2cccc([N+](=O)[O-])c2)CC1)Nc1ccc(OCc2ccccc2)cc1	> 100	2.65	3.91
O=C(C[n+]1cc(-c2ccc(Cl)cc2)n2c1CCC2)c1ccc(C2CCCCC2)cc1	35.5	0.942	1.31
CCN(CC)CCCC(C)NCc1ccc(OC)c(OCc2ccccc2)c1 (stereo not drawn)	> 10	0.264	> 0.787
O=C(C1CC1)N1CCc2cc(Br)cc(S(=O)(=O)N3CCCCC3)c21	> 100	2.64	8.14
Cc1c(C(=O)N2CCC(C)CC2)sc2ncn(CC(=O)N3CCN(c4ccccn4)CC3)c(=O)c12	> 10	0.266	> 1.25
O=C(O)CSc1ccc(C(=O)NC2CCCCNC2=O)cn1 (stereo not drawn)	> 10	0.263	> 1.49
Cc1ccc(-c2nnc(NCc3ccccc3)c3ccccc23)cc1S(=O)(=O)NCC1CCCO1 (stereo not drawn)	> 100	2.57	1.85
CCCCCCCCCC(=O)N1CCN(C(CC)c2nc3ccccc3c(=O)n2C)CC1 (stereo not drawn)	> 10	0.267	0.283
Clc1ccccc1CN1CCc2nc(N3CCCCC3)sc2C1	> 100	2.63	0.594
C=CCN1C(=O)/C(=C\c2ccccc2)C(C(=O)OC)=C1C	> 10	0.262	0.589
COc1ccc(C(=O)N2c3cc(C)ccc3C(Nc3ccc(C)cc3)CC2C)cc1 (stereo not drawn)	> 100	2.62	> 12.5
CCN1CCN(c2nc3ccccn3c(=O)c2/C=C2\SC(=S)N(C(C)C)C2=O)CC1	> 10	0.26	0.717
CCC(=O)NC(c1cccc([N+](=O)[O-])c1)c1ccc2cccnc2c1O (stereo not drawn)	> 100	2.6	3.42
Cc1nc(NC(=N)N)nc2c(C)cccc12	16.4	0.443	0.301
CCOc1ccc(C(=O)C[N+]2=C(CC)c3ccc(C)n3CC2)cc1	81	2.19	2.44

Structure (SMILES)	CC50 [1] [µM]	EC50 (Plasmodium falciparum [2]) [µM]	EC50 (Plasmodium falciparum [3]) [µM]
COc1cccc2cc(C(=O)Nc3cccc(C(F)(F)F)c3)c(=O)oc12	> 2.37	0.064	> 1.25
Cc1cc(C)nc(NC(=N)Nc2cccc(O)c2)n1	> 100	2.65	3.92
CN(C)c1ccc(/C=C/C(=O)NC(=O)c2ccccc2OC(=O)c2ccccc2)cc1	> 10	0.265	0.238
O=C(Nc1nc(-c2ccccc2)cs1)c1ccccc1O	24.3	0.643	1
CCOc1ccc(-c2cn3c(n2)sc2cc(C(=O)NCCN(CC)CC)ccc23)cc1	47.5	1.27	0.766
OC(COc1ccccc1CNCCN1CCCC1)CN1CCc2ccccc2C1 (stereo not drawn)	63.4	1.66	2.2
CCc1ccc(C(=O)Oc2ccccc2-c2nc3ccccn3c2NC(C)(C)CC(C)(C)C)cc1	> 10	0.259	1.76
COC(=O)c1c(N)n(-c2ccccc2OC)c2nc3ccccc3nc12	> 100	2.7	> 12.5
CN(Cc1ccsc1)C(=O)CCc1nnc(CCCc2ccccc2)o1	> 10	0.27	> 1.25
CCCCNC(=O)c1ccc(OC2CCN(CC3CCCCC3)CC2)c(Cl)c1	> 10	0.27	0.639
O=C(Nc1ccc(-c2nc3ccccc3[nH]2)cc1)c1ccc(-c2ccc(Cl)cc2)o1	16.6	0.444	0.193
Oc1nnc(SCc2nc3ccccc3s2)n1Cc1ccco1	> 10	0.268	> 1.46
O=c1c2c([nH]c3ccccc13)CCCCCC2	> 100	2.67	2.94
COc1ccc2c(c1)[nH]c1c(N3CCN(C(c4ccccc4)c4ccccc4)CC3)ncnc12	16.3	0.435	0.339
CCC(C)Nc1nc(NC(C)CC)nc(N2CCCCCC2)n1 (stereo not drawn)	14.7	0.382	0.479
Cc1ccc2[nH]c3c(NCCN(C(C)C)C(C)C)ncnc3c2c1	16.3	0.42	0.306
CCOC(=O)N1CCC(N2C(=O)c3ccccc3C2Nc2ccc(OCC)cc2)CC1 (stereo not drawn)	> 100	2.58	> 12.5
CCC(c1nc2ccccc2c(=O)n1-c1ccccc1OC)N(CCc1ccccc1)C(=O)c1ccc(C)cc1 (stereo not drawn)	> 6.69	0.174	0.418
Cc1oc(-c2cccc(C(F)(F)F)c2)cc1C(=O)O	> 10	0.267	> 0.887

Structure (SMILES)	CC50 [1] [µM]	EC50 (Plasmodium falciparum [2]) [µM]	EC50 (Plasmodium falciparum [3]) [µM]
Clc1ccc(CNCCCn2ccnc2)cc1Cl	> 10	> 0.269	> 1.25
O=C(CCl)Nc1ccc(CN2CCCCC2)cc1	34.1	0.911	0.976
COc1ccc(C(=O)NC(c2ccc(C)cc2)c2cc(Cl)c3cccnc3c2O)cc1 (stereo not drawn)	> 100	2.7	2.42
O=C(Cn1nc([N+](=O)[O-])nc1Br)NC1CCCCC1	> 100	2.66	4.51
COCCN1C(=O)c2ccccc2C(C(=O)Nc2cccc(C(F)(F)F)c2)C1c1cccs1 (stereo not drawn)	> 100	2.65	3.83
CCCC(CCC)C(=O)Nc1ccc2c(c1)N(C(=O)CCCl)c1ccccc1CC2	> 100	2.58	0.416
Cc1cc(NCCCN(C)C)c2ccccc2n1	53.2	1.38	0.716
COc1ccc(C2C(C(=O)c3ccccc3)=C(O)C(=O)N2c2cccc(Cl)c2)c(OC)c1 (stereo not drawn)	> 100	2.59	> 12.5
Cc1ccc(C)n1-c1ccc(N(C)C)cc1	50.9	1.33	2.93
CCCCN1C(=O)N(c2ccccc2C)C(C)(O)CC1(C)C (stereo not drawn)	> 10	> 0.261	> 1.52
CCCCCCc1ccc(/C(C=[N+](C)C)=C\N(C)C)cc1	> 10	0.26	0.335
O=C(Nc1ccc2oc(-c3cccc4ccccc34)nc2c1)c1ccc([N+](=O)[O-])o1	> 100	2.65	5.06
COCCCNC(=O)c1cc(NC(=O)CCCCl)ccc1N1CCc2ccccc2C1	1.13	0.0304	0.331
CCOc1ccc2c(c1)cc(CN(C(C)=O)C1CCCC1)c1nnnn12	> 10	0.268	> 1.25
O=C(Nc1ccc(-c2cn3cccnc3n2)cc1)c1ccccc1I	> 100	2.62	> 12.5
CCCCn1nccc1Nc1cc(C)c(C#N)c2nc3ccccc3n12	> 100	2.61	4.42
Cc1ccc(C(OCC(C)(C)C[N+](C)(C)C)c2ccccc2)cc1 (stereo not drawn)	23.3	0.629	0.265
CCOC(=O)c1c[nH]c2c(CC)cccc2c1=O	> 100	2.65	1.66
